According to PMC3401907, “Cellular Uptakes, Biostabilities and Anti-miR-210 Activities of Chiral Arginine-PNAs in Leukaemic K562 Cells” (Chembiochem, 2012):
Each block holds one substance with its values, some of them ahead of it.

How the values were obtained:
[1] = tested on: DNA2 (mismatched DNA, G→T); assay: Melting temperature (Tm) of PNA:DNA duplexes, single-mismatch DNA; assay type: binding; conditions: for Tm, DNA2 in urea (5 M): single mismatch, UV absorbance at 260 nm, PBS buffer pH 7 with urea 5 M, strand concentration 5 μM
Text: (§1) Sequence selectivity is a very important issue in view of the use of PNAs in cellular systems, because partial hybridisation might occur with other unrelated miRNAs or, most importantly, with mRNA targets. We analysed the sequence selectivities of our PNAs with stricter models (DNA2 and RNA2) involving single base mismatches (G→T or G→U) located in the middle of the target sequences. In each case the sequence selectivity was confirmed by significant lowering of the melting temperature. The ranges of ΔTm due to the presence of these single mismatches were 8–21 °C for DNA, with the maximum drop in the case of PNA4 and the minimum observed in that of PNA6. For the latter it should be considered that the mismatch was facing the last chiral monomer, preventing the cooperative effect observed in the case of 2D-modifed highly constrained PNA.[22]
(§2) Measurements of Tm values: The Tm values were determined with a Lambda Bio 20 spectrophotometer and a Peltier PTP6 temperature programmer. Thermal denaturation profiles were measured by monitoring the absorbance at 260 nm from 18 to 90 °C with a heating rate of 1 °C min^−1 and recording every 0.1 °C. Measurement conditions: [PNA]=[DNA] or [RNA]=5 μM in PBS buffer [pH 7.0, NaCl (100 mM), NaH2PO4⋅H2O (10 mM), EDTA (0.1 mM)] with urea (5 M).

[2] = tested on: RNA1 (target region of miR-210); assay: Melting temperature (Tm) of PNA:RNA duplexes, full-match RNA; assay type: binding; conditions: UV absorbance at 260 nm, strand concentration 5 μM; for Tm, RNA1 in water: PBS buffer pH 7, no urea; for Tm, RNA1 in urea (5 M): PBS buffer pH 7 with urea 5 M
Experimental: as §2, with “Measurement conditions: [PNA]=[DNA] or [RNA]=5 μM in PBS buffer [pH 7.0, NaCl (100 mM), NaH2PO4⋅H2O (10 mM), EDTA (0.1 mM)] with urea (5 M).” left out

[3] = tested on: DNA1 (full-match antiparallel DNA); assay: Melting temperature (Tm) of PNA:DNA duplexes, full-match DNA; assay type: binding; conditions: UV absorbance at 260 nm, strand concentration 5 μM; for Tm, DNA1 in urea (5 M): PBS buffer pH 7 (NaCl 100 mM, NaH2PO4 10 mM, EDTA 0.1 mM) with urea 5 M; for Tm, DNA1 in water: PBS buffer pH 7, no urea, 18 to 90 °C at 1 °C/min
Experimental: as §2, with “Measurement conditions: [PNA]=[DNA] or [RNA]=5 μM in PBS buffer [pH 7.0, NaCl (100 mM), NaH2PO4⋅H2O (10 mM), EDTA (0.1 mM)] with urea (5 M).” left out

miR-210 = miR-210 content by RT-qPCR analysis; assay type: cell-based, human; conditions: K562 cells, 24 h; for miR-210 inhibition upon treatment with mithramycin: PNA 2 μM with MTH 15 nM, relative to pept-1 and MTH; for inhibition of miR-210 bioavailability (miR-210 content): PNA 2 μM, Figure 5 A and B, relative to pept-1
Experimental: K562 cells were treated with 15 nM mithramycin in the presence of a PNA (2 μM), and after 24 h RNA was isolated and miR-210 was assayed by RT-qPCR analysis. This type of test has been used to evaluate miR content in many studies because it allows the free-miR content to be evaluated. […] Figure 5 A and B reports the obtained data, showing that inhibition of miR bioavailability was induced both with the modified PNA and with the peptide-conjugated one, whereas in the case of PNA1 it was unchanged. […] This might be related to inhibition of pre-miR maturation or to unavailability of the miR to the qRT-PCR analysis due to strong complexation with the PNA. In either case the bioavailability of the miR for targeting other genes should be reduced.
Transfection procedures: Anti-miR-210 PNAs were directly added to the cellular medium to reach the indicated final concentrations. K562 cells were cultured in 24-well plates starting from the initial density of 30 000 cells per mL. MTH was administrated together with anti-miR PNAs.
RNA extraction: Cells were isolated by centrifugation at 1500 rpm for 10 min at 4 °C, washed in PBS and lysed in Tri-reagent (Sigma–Aldrich) according to the manufacturer's instructions. The isolated RNA was washed once with cold ethanol (75 %), dried and dissolved in ultrapure nuclease-free water.
Real-time quantitative PCR: For microRNA quantification with real-time RT-PCR reagents, the primers and probes were obtained from Applied Biosystems. Reverse transcriptase (RT) reactions were performed with a TaqMan MicroRNA Reverse Transcription Kit (Applied Biosystems) for hsa-miR-210, hsa-miR-10a, hsa-miR-93, hsa-miR-99b, hsa-miR-126, hsa-miR-149, hsa-miR-424, hsa-miR-483-5p, hsa-miR-625, hsa-let-7c and the iQTM5 real-time PCR System Instrument (Bio-Rad). Relative expression was calculated by the comparative cycle threshold method and U6 microRNA was used as reference gene to normalise all RNA samples, because it is constant in the assayed samples by miR-profiling and quantitative RT-PCR analysis as previously reported.[25]

[4] = tested on: RNA2 (mismatched RNA, G→U); assay: Melting temperature (Tm) of PNA:RNA duplexes, single-mismatch RNA; assay type: binding; conditions: UV absorbance at 260 nm, PBS buffer pH 7 with urea 5 M, strand concentration 5 μM
Text: as §1, §2

K562 cells [5] = assay: Cellular uptake of fluorescein-labelled PNAs by FACS analysis; assay type: cell-based, human; conditions: 24 h incubation; for change of cellular uptake in the presence of serum: medium with serum vs serum-free, FACS
Experimental: We therefore studied the uptake of backbone-modified PNAs in the same cellular model and compared the obtained results with those observed in the study of PNA1 and PNA2. K562 cells were incubated in the presence of increasing concentrations of fluorescein-labelled PNAs (PNA1–6-Fl) for 24 and 48 h and analysed by fluorescence-activated cell sorting analysis (FACS), giving the results shown in Figure 3. Because different PNA structures could be affected by proteases present in serum, leading to different cellular uptakes, these experiments were conducted both in the presence and in the absence of serum.
Human cell lines and culture conditions: Human leukaemia K562 cells were cultured under humidified CO2 (5 %)/air in RPMI 1640 medium (Sigma) supplemented with foetal bovine serum (FBS, 10 %, Analitical de Mori, Milan, Italy), penicillin (50 units mL^−1) and streptomycin (50 μg mL^−1).[26] Mithramycin (MTH) was from Sigma. Stock solutions of MTH (100 μM) were stored at −20 °C in the dark and diluted immediately before use. Treatment of K562 cells with MTH was carried out by addition of the appropriate drug concentrations at the beginning of the cultures (cells were seeded at 30 000 mL^−1). The medium was not changed during the induction period. To determine antiproliferative activity, cell growth was studied by determining the cell number per mL with a Z1 Coulter Counter (Coulter Electronics, Hialeah, FL, USA). Erythroid differentiated K562 cells containing haemoglobin were detected by specific reaction with a benzidine/hydrogen peroxide solution as reported elsewhere.[26] The final concentration of benzidine was 0.2 % in glacial acetic acid (5 M) and H2O2 (10 %).
(§3) FACS analysis: For determination of fluorescence intensity by FACScan (Becton Dickinson, Franklin Lakes, NJ, USA), cells (either in medium supplemented with serum or under serum-free conditions) were incubated with the indicated concentrations of PNAs for different lengths of time, harvested and washed. The cells (3×10^5) were then analysed with the aid of the CellQuest version 3.3 software (Becton Dickinson), with use of the FL1 channel to detect green fluorescence. The results were expressed as median fold (i.e., the ratio between the median fluorescence intensity values obtained in the presence and in the absence of treatment, respectively). A graphic presentation of data was finally obtained through histograms, showing the number of cells versus the expressed fluorescence intensity. In some experiments we pre-incubated fluorescence-labelled PNAs (2 μM) for 10 min at room temperature in the dark with trypsin/EDTA (0.05 %, 2 and 4 μL) before addition to the cells.

K562 cells [6] = assay: Cellular uptake (FACS) after pre-incubation with trypsin; assay type: cell-based, human; conditions: PNA 2 μM pre-incubated 10 min at room temperature with trypsin (0.012–0.025 %), then K562 cells in the absence of serum
Experimental: In order to explore the effect of protection against proteases further, pre-incubation of the PNA–peptide conjugate PNA2-Fl and the modified PNAs PNA3-Fl, PNA4-Fl, PNA5-Fl and PNA6-Fl was performed with trypsin (0.012–0.025 %) before allowing interaction with target K562 cells in the absence of serum (see Figure 4). […] The embedding of arginine residues into the PNA backbone thus allows efficient cellular uptake to be achieved without the risk of degradation even by a basic amino-acid-specific peptidase. In contrast, the carrier peptide of PNA2-Fl is to a certain degree an Achilles' heel of the molecule, leading to possible degradation by proteases, an effect worth considering in view of possible developments of PNAs as drugs based on anti-miR activity.
as §3

Substance: H-CC2DARGGC2DARGTG2DARGTC2DARGAC2DARGAC2DARGGC2DARGAC2DARG AG-NH2 [PNA5, 2D Arg (C2) backbone-modified 18-mer PNA, model 1, alternating modified monomers]
- Tm, DNA2 in urea (5 M) [1]: 64 °C
- Tm, RNA1 in water [2]: >90 °C
- Tm, RNA1 in urea (5 M) [2]: 78 °C
- Tm, DNA1 in urea (5 M) [3]: 74 °C
- Tm, DNA1 in water [3]: >90 °C
- miR-210 inhibition upon treatment with mithramycin (miR-210): significant inhibition, but to lesser extents
- inhibition of miR-210 bioavailability (miR-210 content) (miR-210): less efficient inhibition
- Tm, RNA2 in urea (5 M) [4]: 62 °C

Substance: Flu-AEEA-R8-CCGCTGTCACACGCACAG-NH2 [PNA2-Fl, fluorescein-labelled R8-conjugated PNA2, reference compound]
- change of cellular uptake in the presence of serum (K562 cells [5]): decreased uptake
- cellular uptake (internalisation) in the absence of serum (K562 cells [5]; serum-free, FACS FL1 channel): efficiently internalised
- effect of trypsin pre-incubation on cellular uptake (K562 cells [6]): trypsin treatment affects the cellular uptake

Substance: Fl-AEEA-CC5LArgGC5LArgTG5LArgTC5LArgAC5LArgAC5LArgGC5LArgAC5LArgAG-NH2 [PNA3-Fl, fluorescein-labelled PNA3]
- change of cellular uptake in the presence of serum (K562 cells [5]): only minor decreases in uptake
- effect of trypsin pre-incubation on cellular uptake (K562 cells [6]): does not affect uptake

Substance: H-C2DArgC2DArgG2DArgC2DArgT2DArgG2DArgT2DArgC2DArgACACGCACAG-NH2 [PNA6, 2D Arg (C2) backbone-modified 18-mer PNA, model 2, stretch of consecutive modified monomers]
- ΔTm due to single mismatch, DNA ([1]; DNA1 vs DNA2 (G→T in the middle of the target), urea 5 M): 8 °C
- Tm, DNA2 in urea (5 M) [1]: 69 °C
- Tm, RNA1 in water [2]: >90 °C
- Tm, RNA1 in urea (5 M) [2]: 75 °C
- Tm, DNA1 in urea (5 M) [3]: 77 °C
- Tm, DNA1 in water [3]: >90 °C
- miR-210 inhibition upon treatment with mithramycin (miR-210): significant inhibition, but to lesser extents
- inhibition of miR-210 bioavailability (miR-210 content) (miR-210): Stronger inhibition
- Tm, RNA2 in urea (5 M) [4]: 65 °C

Now from value to substance:

- change of cellular uptake in the presence of serum (K562 cells [5]): no decreases in uptake
- effect of trypsin pre-incubation on cellular uptake (K562 cells [6]): does not affect uptake
Substance: Fl-AEEA-CC2DArgGC2DArgTG2DArgTC2DArgAC2DArgAC2DArgGC2DArgAC2DArg AG-NH2 [PNA5-Fl, fluorescein-labelled PNA5]

- change of cellular uptake in the presence of serum (K562 cells [5]): no decreases in uptake
- effect of trypsin pre-incubation on cellular uptake (K562 cells [6]): does not affect uptake
Substance: Fl-AEEA-C2DArgC2DArgG2DArgC2DArgT2DArgG2DArgT2DArgC2DArgACACGCACAG-NH2 [PNA6-Fl, fluorescein-labelled PNA6]

- change of cellular uptake in the presence of serum (K562 cells [5]): only minor decreases in uptake
- effect of trypsin pre-incubation on cellular uptake (K562 cells [6]): does not affect uptake
Substance: Fl-AEEA-C5LArgC5LArgG5LArgC5LArgT5LArgG5LArgT5LArgC5LArgACACGCACAG-NH2 [PNA4-Fl, fluorescein-labelled PNA4]
